From ChEMBL document CHEMBL4330184, “Aryl Substituted Benzimidazolones as Potent HIV-1 Non-Nucleoside Reverse Transcriptase Inhibitors” (ACS Med Chem Lett, 2019)

Assays:
[1] = Cytotoxicity against HEK293T cells assessed as reduction in cell viability after 48 hrs by CellTiter 96 aqueous one solution assay; format: cell-based, HEK-293T; conditions: human
[2] = test system: Human immunodeficiency virus 1; assay: Selectivity ratio of IC50 for HIV1 reverse transcriptase K103N mutant in HIV1 infected HEK293T cells to IC50 for wild-type HIV1 reverse transcriptase in HIV1 infected HEK293T cells
[3] = test system: Human immunodeficiency virus 1; assay: Selectivity ratio of IC50 for HIV1 reverse transcriptase Y181C mutant in HIV1 infected HEK293T cells to IC50 for wild-type HIV1 reverse transcriptase in HIV1 infected HEK293T cells
[4] = test system: Human immunodeficiency virus 1; assay: Selectivity ratio of IC50 for HIV1 reverse transcriptase V106M mutant in HIV1 infected HEK293T cells to IC50 for wild-type HIV1 reverse transcriptase in HIV1 infected HEK293T cells

| SMILES | CC50 at 48 h [1] [µM] | also measured |
| --- | --- | --- |
| CCC(c1ccccc1)n1c(=O)[nH]c2ccc(Cl)cc21 (racemic) | 55 | Ratio IC50 [2]: > 10; Ratio IC50 [3]: > 10 |
| CCn1c(=O)[nH]c2cccc(Oc3ccnc(Cl)c3)c21 | 95.1 |  |
| CCn1c(=O)[nH]c2cccc(Oc3cc(C#N)cc(/C=C/C#N)c3)c21 | 9.7 |  |
| CCn1c(=O)[nH]c2cccc(Oc3ccnc(C#N)c3)c21 | > 100 |  |
| CCn1c(=O)[nH]c2cccc(Oc3cccc4ccccc34)c21 | 31.3 |  |
| CCn1c(=O)[nH]c2cccc(Oc3cc(C#N)ccn3)c21 | > 100 |  |
| CCn1c(=O)[nH]c2cccc(Oc3ccccc3)c21 | 55 |  |
| CCn1c(=O)[nH]c2cccc(Oc3cc(Cl)cc(C#N)c3)c21 | 24.1 | Ratio IC50 [4]: > 10 |
| CC1(C)OC(=O)Nc2cccc(Oc3cc(Cl)cc(C#N)c3)c21 | 82.7 |  |
| CCn1c(=O)[nH]c2cccc(Oc3cc(C)cc(C)c3)c21 | 7.16 |  |
| Cc1ccnc2c1NC(=O)c1cccnc1N2C1CC1 [NEVIRAPINE] | 92.7 |  |
| Cn1c(=O)[nH]c2cccc(Oc3cc(Cl)cc(C#N)c3)c21 | 53.4 | Ratio IC50 [4]: > 10 |
| CCn1c(=O)[nH]c2cccc(Oc3cc(C#N)cc(C#N)c3)c21 | 96.6 |  |
| CCCn1c(=O)[nH]c2cccc(Oc3cc(Cl)cc(C#N)c3)c21 | 24.8 |  |
